Reference: patent US20240271226A1, “METHODS OF PATHOGEN IDENTIFICATION AND ANTIMICROBIAL SUSCEPTIBILITY TESTING” (priority 2020, published 2024)
Values joined by “and” are separate entries in the source; they are usually repeats but may differ in a detail not shown here. Equal values may be shown once. {FAM-O} = FAM dye attached through an O linker at the PNA N-terminus; {IABk} = Iowa Black quencher

Legend:
[1] = system: multi-drug resistant strain of E. coli (ATCC BAA 2471); conditions: cited from earlier work
[2] = system: uropathogenic E. coli; conditions: Baltimore, USA; cited from earlier work
[3] = Tm of designed PNA probes; type: physicochemical
Excerpt: PNA probes were designed to target specific regions in the 16S rRNA for organisms belonging to the Enterobacterales (EB) order, the E. coli and P. mirabilis species (EC and PM), and the eubacterial kingdom (UNI), based on previous work (52, 72) (Table 1). The EB, EC, and PM probes were labeled with a FAM fluorophore, whereas the universal probe was labeled with an Alexa546 fluorophore. For each PNA probe, a short complementary DNA quencher was designed labeled with an Iowa Black® dark quencher. All probes were synthesized by PNA Bio (Newbury Park, CA), and all DNA quencher strands were synthesized by Integrated DNA Technologies (San Diego, CA). Probes and quenchers were stored in a custom hybridization buffer consisting of 50 mM NaCl, 25 mM Tris-HCl pH 8.0, and 0.5% polyvinylpyrrolidone (PVP) at −20° C. PVP is included to reduce the likelihood of probes being adsorbed to or retained by the walls of the PDMS devices. Prior to each experiment, individual aliquots of PNA probes were first thawed at 60° C. for 10 min to ensure full dissolution of the PNA stock into the hybridization buffer. For both bulk-based and droplet experiments, 200 nM PNA probes were mixed with 600 nM of the corresponding quencher in the custom hybridization buffer, and this solution was either mixed in bulk or co-encapsulated into droplets at a 1:1 ratio along with bacteria-containing urine and/or MH suspensions. […]

[4] = system: E. coli ATCC 25922 16S rRNA; test: Bulk PNA probe hybridization assay in urine, LIF detection; type: binding; conditions: ~10^9 CFU/mL E. coli ATCC 25922 spiked in urine; 2 min 95° C. lysis, 30 min 60° C. hybridization
Excerpt: (§1) PNA probes were designed to target specific regions in the 16S rRNA for organisms belonging to the Enterobacterales (EB) order, the E. coli and P. mirabilis species (EC and PM), and the eubacterial kingdom (UNI), based on previous work (52, 72) (Table 1). The EB, EC, and PM probes were labeled with a FAM fluorophore, whereas the universal probe was labeled with an Alexa546 fluorophore. For each PNA probe, a short complementary DNA quencher was designed labeled with an Iowa Black® dark quencher. All probes were synthesized by PNA Bio (Newbury Park, CA), and all DNA quencher strands were synthesized by Integrated DNA Technologies (San Diego, CA). Probes and quenchers were stored in a custom hybridization buffer consisting of 50 mM NaCl, 25 mM Tris-HCl pH 8.0, and 0.5% polyvinylpyrrolidone (PVP) at −20° C. PVP is included to reduce the likelihood of probes being adsorbed to or retained by the walls of the PDMS devices. Prior to each experiment, individual aliquots of PNA probes were first thawed at 60° C. for 10 min to ensure full dissolution of the PNA stock into the hybridization buffer. For both bulk-based and droplet experiments, 200 nM PNA probes were mixed with 600 nM of the corresponding quencher in the custom hybridization buffer, and this solution was either mixed in bulk or co-encapsulated into droplets at a 1:1 ratio along with bacteria-containing urine and/or MH suspensions. An appropriate dosage of antibiotics was included in this mixture if required for the experiment.
(§2) We first verified that the probes can specifically detect target bacteria spiked into urine. […] We spiked ˜10^9 CFU/mL (equivalent to 1 cell in a ˜1 pL droplet) of standard reference strains of E. coli ATCC 25922, P. mirabilis ATCC 12453, K. pneumoniae ATCC BAA 1705, and P. aeruginosa ATCC 27853 into a mixture of culture-negative (i.e., blank) urine samples and hybridization buffer with each PNA probe. Each sample was subjected to 2 min of thermal lysis at 95° C. and 30 min of hybridization at 60° C., and then detected at room temperature within a 10 μm-wide microfluidic detection channel by our 2-color LIF detector (FIG. 6).

[5] = system: P. aeruginosa ATCC 27853 16S rRNA; test: as above; type: binding; conditions: ~10^9 CFU/mL P. aeruginosa ATCC 27853 spiked in urine; 2 min 95° C. lysis, 30 min 60° C. hybridization
Excerpt: as §1, §2

[6] = system: K. pneumoniae ATCC BAA 1705 16S rRNA; test: as above; type: binding; conditions: ~10^9 CFU/mL K. pneumoniae ATCC BAA 1705 spiked in urine; 2 min 95° C. lysis, 30 min 60° C. hybridization
Excerpt: as §1, §2

[7] = system: P. mirabilis ATCC 12453 16S rRNA; test: as above; type: binding; conditions: ~10^9 CFU/mL P. mirabilis ATCC 12453 spiked in urine; 2 min 95° C. lysis, 30 min 60° C. hybridization
Excerpt: as §1, §2

[8] = system: multi-drug resistant E. coli; test: In-droplet single-cell 16S rRNA AST in spiked urine; type: cell-based; conditions: gentamicin 8 μg/mL, urine with 2×MH broth, 37° C. for 30, 15, 10 or 5 min
Description: We next sought to minimize the culture/antibiotic exposure time for assessing antimicrobial susceptibility in urine. We separately digitized reference and multi-drug resistant E. coli-spiked urine samples, each along with 2×MH broth and EC PNA probes in droplets without and with gentamicin (bactericidal concentration of 8 μg/mL). Each gentamicin-free and gentamicin-dosed droplet group pair was then incubated at 37° C. for 30, 15, 10, or 5 min, followed by lysis, hybridization, and LIF detection (FIG. 13B). Longer bacterial culture result in higher production of 16S rRNA in gentamicin-free bacterial cells and therefore increased positive droplet frequencies. […] The effect of gentamicin on the two strains can be differentiated after as short as 10 min culture/antibiotic exposure, the minimum time at which there is no overlap between the error envelopes around the normalized positive droplet populations. […] As a result, we achieve assessment of antimicrobial susceptibility faster than the average replication time of an E. coli cell, a feat that ultimately paves the way for integrating molecular ID and AST to well under 30 min.
Finally, we investigated the utility of our single-cell 16S rRNA-based phenomolecular AST approach against 3 clinically important antibiotics. […]. […]

[9] = system: reference E. coli ATCC 25922; test: Bulk pheno-molecular AST by 16S rRNA hybridization detection; type: cell-based
Excerpt: (§3) We note that we can achieve preliminary pheno-molecular AST by directly detecting PNA-to-16S rRNA hybridization in the bulk format via the LIF detector, though only after relatively lengthy antibiotic exposure. […] We then determined the relative fluorescence intensity—the ratio between the fluorescence intensities of the gentamicin-dosed cells and the gentamicin-free cells—for both strains for each culture duration.

[10] = system: multi-drug resistant E. coli ATCC BAA 2471; test: as above; type: cell-based; conditions: gentamicin 8 μg/mL, 20 μL bulk, 0-120 min at 37° C., EC PNA probe
Excerpt: as §3

[11] = system: reference E. coli; test: In-droplet single-cell 16S rRNA AST in spiked urine; type: cell-based; conditions: gentamicin 8 μg/mL, urine with 2×MH broth, 37° C. for 30, 15, 10 or 5 min
[12] = system: E. coli cells; test: In-droplet single-cell 16S rRNA AST in MH broth; type: cell-based
Excerpt: A custom MATLAB program was developed for analyzing the raw fluorescence intensity data acquired from the APD. From the fluorescence intensity time trace of each experimental run, the program looks for individual droplets by quantifying peak widths and peak heights. Once droplet position and fluorescence intensity were identified for all droplets in a sample, the intensities were plotted as a histogram with ˜150 bins. Resulting histograms typically follow a bimodal distribution, and in order to classify the respective subpopulations, the first droplet histogram peak (“empty droplets”) were fitted with a Gaussian curve. Based on the fitted curve, the mean intensity of the empty droplet population as well as the standard deviation were calculated. All droplets whose intensities were 5 standard deviations above the empty droplet mean intensity were counted as bacteria-containing “positive droplets.” Signal to background ratios were calculated by dividing the mean intensity of positive droplets by the mean intensity of empty droplets.
We first co-encapsulated the EC probe and E. coli cells, which were spiked into Mueller-Hinton broth (MH), into picoliter droplets. […]

CC1(C)S[C@@H]2[C@H](NC(=O)[C@H](N)c3ccccc3)C(=O)N2[C@H]1C(=O)O [ampicillin]
reported resistance of the strain [1]: resistant

O=C(O)c1cn(C2CC2)c2cc(N3CCNCC3)c(F)cc2c1=O [ciprofloxacin]
reported resistance of the strain [1]: resistant | resistance rate [2]: ≤ 31%

EC probe: FAM-labeled PNA probe FAM-O-TCAATGAGCAAAGGT-KK targeting E. coli 16S rRNA, with Iowa Black DNA quencher IABk-AGTTACTCGT (chain 1: all peptide nucleic acid (PNA), 5' {FAM-O}; chain 2: DNA, 5' {IABk}, backbone and methylation of C not given here; PNA carries two C-terminal lysines)
Tm [3]: 76.3 °C | probe fluorescence signal in the presence of target bacteria over blank urine background [4]: significantly higher signal

UNI probe: Alexa546-labeled pan-bacteria PNA probe GCTGCCTCCCGTAGGA-K-Alexa546 targeting eubacterial 16S rRNA, with DNA quencher GGAGGGCATCCT-IABk (PNA, lysine-Alexa546, DNA quencher strand, chemistry not fully specified)
Tm [3]: 80.5 °C | probe fluorescence signal in the presence of target bacteria over blank urine background [5]: successfully detects | probe fluorescence signal in the presence of target bacteria over blank urine background [6]: successfully detects | probe fluorescence signal in the presence of target bacteria over blank urine background [7]: successfully detects | probe fluorescence signal in the presence of target bacteria over blank urine background [4]: successfully detects

gentamicin
normalized positive droplet population [8]: comparatively higher and relatively unchanging normalized positive droplet population | reported resistance of the strain [1]: resistant | culture/antibiotic exposure needed to see or differentiate the effect on susceptible vs resistant E. coli ([9]; bulk format, vs multi-drug resistant E. coli BAA 2471): > 90 min and 90 min | relative fluorescence intensity (gentamicin-dosed cells / gentamicin-free cells) ([9]; gentamicin 8 μg/mL, 20 μL bulk, 0-120 min at 37° C., EC PNA probe): significantly lower relative fluorescence intensities | relative fluorescence intensity (gentamicin-dosed cells / gentamicin-free cells) [10]: ~1 | normalized positive droplet population [11]: decreasing normalized positive droplet population over increasing culture times | normalized positive droplet population versus antibiotic concentration ([12]; E. coli in MH broth, droplets): decreases as the concentration of gentamicin increases | frequency of positive droplets ([12]; gentamicin 128 μg/mL, 30 min culture/antibiotic exposure, MH broth, 4×10^7 CFU/mL E. coli, no-antibiotic control 7.70%): 3.12%
